Test results published in patent US20120083522A1, “MODULATION OF INFLAMMATORY RESPONSES BY FACTOR XI” (Isis Pharmaceuitcals, inc., priority 2009, published 2012).
In the oligonucleotide strings, read from the 5' end, every base follows the letter of its sugar. An asterisk marks phosphorothioate; unmarked linkages are phosphodiester. Other units and linkages are bracketed, terminal groups are in braces. A string of capitals states the bases alone. e = 2'-O-(2-methoxyethyl) (MOE); [5mC] = 5-methylcytosine; d = 2'-deoxy (DNA)

Experiments:
human Factor XI mRNA [1] = assay: Dose-dependent inhibition in HepG2 cells, electroporation (Example 4); format: cell-based; details: 16 hours
Procedure, shortened: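 HepG2 cells electroporated with 0.7, 2.2, 6.7 or 20 μM antisense gapmer and harvested after ~16 h. Factor XI mRNA quantified by qRT-PCR (primer probe set RTS 2966), normalised to total RNA (RIBOGREEN). Reported as percent inhibition versus untreated control cells.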

human Factor XI mRNA [2] = assay: Dose-dependent antisense inhibition in HepG2 cells, lipofectin (Example 2); format: cell-based; details: approximately 16 hours
Description: Cells were plated at a density of 10,000 cells per well and transfected using lipofectin reagent with 9.375 nM, 18.75 nM, 37.5 nM, 75 nM, and 150 nM concentrations of antisense oligonucleotide, as specified in Table 3. After a treatment period of approximately 16 hours, RNA was isolated from the cells and Factor XI mRNA levels were measured by quantitative real-time PCR. Human Factor XI primer probe set RTS 2966 (forward sequence: […], incorporated herein as SEQ ID NO: 3; reverse sequence: […], incorporated herein as SEQ ID NO: 4; probe sequence: TTGTCTACTGAAGCACACCCAAACAGGGAX, wherein X is the fluorophore, incorporated herein as SEQ ID NO: 5) was used to measure mRNA levels. Factor XI mRNA levels were adjusted according to total RNA content, as measured by RIBOGREEN®. Results are presented as percent inhibition of Factor XI, relative to untreated control cells.

human Factor XI mRNA [3] = assay: Antisense inhibition in HepG2 cells by microwalk gapmers, 8,000 nM, electroporation (Example 14); format: cell-based; details: HepG2 cells, 8,000 nM
Procedure, shortened: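 Percent reduction of Factor XI transcript, relative to untreated controls, by real-time PCR with RIBOGREEN normalisation. Readout taken about 24 h after electroporating HepG2 cells with 8,000 nM oligonucleotide. Gapmers are 5-10-5, 5-8-5 or 6-8-6 MOE wings, phosphorothioate backbone.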

human Factor XI mRNA [4] = assay: Antisense inhibition in HepG2 cells by microwalk gapmers, 75 nM, lipofectin (Example 3); format: cell-based; details: HepG2 cells, 75 nM
Procedure, shortened: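 HepG2 cells (10,000 per well) were transfected with 75 nM gapmer using lipofectin and treated for about 24 h. Factor XI mRNA was quantified by real-time PCR, normalized to RiboGreen total RNA and expressed as percent inhibition versus untreated controls.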

human Factor XI mRNA [5] = assay: Dose-dependent inhibition in HepG2 cells, lipofectin (Example 4); format: cell-based; details: 16 hours
Procedure, shortened: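 Read-out was percent inhibition of Factor XI mRNA relative to untreated controls, by qRT-PCR (RTS 2966) adjusted for RIBOGREEN-measured total RNA. Cells received antisense oligonucleotide at 9.375 to 75 nM (four levels) via lipofectin. Treatment lasted approximately 16 hours, with plating at 10,000 cells per well.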

[6] = Tolerability in Sprague-Dawley rats: hematology assays (Example 23); format: in vivo; design: RBC / WBC / Neutrophil / Lymphocyte / Platelets: unit not given here; details: blood
[7] = Tolerability in CD1 mice: body and organ weight (Example 25); format: in vivo; details: 50 mg/kg s.c. twice per week for 6 weeks; for Kidney weight as percentage of body weight / Liver weight as percentage of body weight / Spleen weight as percentage of body weight: end of study

Substance | RBC [6] | WBC [6] | Body weight (increase over PBS control weight before start of treatment) [7] [g] | Kidney weight as percentage of body weight [7] [%] | Liver weight as percentage of body weight [7] [%] | Spleen weight as percentage of body weight [7] [%] | other results
412206 (antisense e[5mC]*e[5mC]*eG*eT*eG*d[5mC]*dA*dT*d[5mC]*dT*dT*dT*d[5mC]*dT*dT*eG*eG*e[5mC]*eA*eT) [compound 412206] | – | – | – | – | – | – | percent inhibition of Factor XI mRNA, relative to untreated control cells (human Factor XI mRNA [1]; 0.7 μM): 22%; percent inhibition of Factor XI mRNA, relative to untreated control cells (human Factor XI mRNA [1]; 2.2 μM): 39%; percent inhibition of Factor XI mRNA, relative to untreated control cells (human Factor XI mRNA [1]; 6.7 μM): 81%; percent inhibition of Factor XI mRNA, relative to untreated control cells (human Factor XI mRNA [1]; 20 μM): 94%; percent inhibition of Factor XI (human Factor XI mRNA [2]; 9.375 nM): 28%; percent inhibition of Factor XI (human Factor XI mRNA [2]; 18.75 nM): 44%; percent inhibition of Factor XI (human Factor XI mRNA [2]; 37.5 nM): 68%; percent inhibition of Factor XI (human Factor XI mRNA [2]; 75 nM): 80%; percent inhibition of Factor XI (human Factor XI mRNA [2]; 150 nM): 89%; Percent inhibition of human Factor XI mRNA levels (human Factor XI mRNA [3]): 91%; % inhibition of human Factor XI mRNA levels (human Factor XI mRNA [4]; oligonucleotides targeted to nucleobases 738 to 762 of SEQ ID NO: 1): 93%; percent inhibition of Factor XI mRNA, relative to untreated control cells (human Factor XI mRNA [5]; 9.375 nM): 24%; percent inhibition of Factor XI mRNA, relative to untreated control cells (human Factor XI mRNA [5]; 18.75 nM): 47%; percent inhibition of Factor XI mRNA, relative to untreated control cells (human Factor XI mRNA [5]; 37.5 nM): 69%; percent inhibition of Factor XI mRNA, relative to untreated control cells (human Factor XI mRNA [5]; 75 nM): 86%
413476 (antisense eT*eT*eG*eA*eG*dA*dT*dT*d[5mC]*dT*dT*dT*dG*dG*dG*e[5mC]*e[5mC]*eA*eT*eT) [compound 413476] | – | – | – | – | – | – | percent inhibition of Factor XI mRNA, relative to untreated control cells (human Factor XI mRNA [1]; 0.7 μM): 40%; percent inhibition of Factor XI mRNA, relative to untreated control cells (human Factor XI mRNA [1]; 2.2 μM): 69%; percent inhibition of Factor XI mRNA, relative to untreated control cells (human Factor XI mRNA [1]; 6.7 μM): 88%; percent inhibition of Factor XI mRNA, relative to untreated control cells (human Factor XI mRNA [1]; 20 μM): 93%; percent inhibition of Factor XI (human Factor XI mRNA [2]; 9.375 nM): 26%; percent inhibition of Factor XI (human Factor XI mRNA [2]; 18.75 nM): 44%; percent inhibition of Factor XI (human Factor XI mRNA [2]; 37.5 nM): 64%; percent inhibition of Factor XI (human Factor XI mRNA [2]; 75 nM): 73%; percent inhibition of Factor XI (human Factor XI mRNA [2]; 150 nM): 82%; % inhibition of human Factor XI mRNA levels (human Factor XI mRNA [4]; oligonucleotides targeted to nucleobases 1062 to 1091 of SEQ ID NO: 1): 93%; percent inhibition of Factor XI mRNA, relative to untreated control cells (human Factor XI mRNA [5]; 9.375 nM): 24%; percent inhibition of Factor XI mRNA, relative to untreated control cells (human Factor XI mRNA [5]; 18.75 nM): 58%; percent inhibition of Factor XI mRNA, relative to untreated control cells (human Factor XI mRNA [5]; 37.5 nM): 62%; percent inhibition of Factor XI mRNA, relative to untreated control cells (human Factor XI mRNA [5]; 75 nM): 77%
ISIS 416848: gapmer of Table 8 (antisense e[5mC]*eA*e[5mC]*eA*eG*dT*dT*dT*d[5mC]*dT*dG*dG*d[5mC]*dA*dG*eG*e[5mC]*e[5mC]*eT*e[5mC]) | 6.0 | 17 | – | – | – | – | –
ISIS 416851: gapmer of Table 8 (antisense eG*eT*eG*e[5mC]*eA*d[5mC]*dA*dG*dT*dT*dT*d[5mC]*dT*dG*dG*e[5mC]*eA*eG*eG*e[5mC]) | 7.4 | 11 | – | – | – | – | –
ISIS 416852: gapmer of Table 8 (antisense eT*eG*eG*eT*eG*d[5mC]*dA*d[5mC]*dA*dG*dT*dT*dT*d[5mC]*dT*eG*eG*e[5mC]*eA*eG) | 7.2 | 13 | – | – | – | – | –
ISIS 416859: gapmer of Table 8 (antisense eG*eA*e[5mC]*eG*eG*d[5mC]*dA*dT*dT*dG*dG*dT*dG*d[5mC]*dA*e[5mC]*eA*eG*eT*eT) | 7.8 | 16 | – | – | – | – | –
ISIS 416860: gapmer of Table 8 (antisense e[5mC]*eG*eG*eA*e[5mC]*dG*dG*d[5mC]*dA*dT*dT*dG*dG*dT*dG*e[5mC]*eA*e[5mC]*eA*eG) | 7.8 | 17 | – | – | – | – | –
ISIS 416861: gapmer of Table 8 (antisense eG*e[5mC]*eG*eG*eA*d[5mC]*dG*dG*d[5mC]*dA*dT*dT*dG*dG*dT*eG*e[5mC]*eA*e[5mC]*eA) | 7.7 | 15 | – | – | – | – | –
ISIS 416863: gapmer of Table 8 (antisense e[5mC]*eA*eG*e[5mC]*eG*dG*dA*d[5mC]*dG*dG*d[5mC]*dA*dT*dT*dG*eG*eT*eG*e[5mC]*eA) | 7.6 | 17 | – | – | – | – | –
ISIS 416866: gapmer of Table 8 (antisense e[5mC]*eT*eG*eG*e[5mC]*dA*dG*d[5mC]*dG*dG*dA*d[5mC]*dG*dG*d[5mC]*eA*eT*eT*eG*eG) | 7.8 | 20 | – | – | – | – | –
ISIS 416867: gapmer of Table 8 (antisense eA*e[5mC]*eT*eG*eG*d[5mC]*dA*dG*d[5mC]*dG*dG*dA*d[5mC]*dG*dG*e[5mC]*eA*eT*eT*eG) | 7.8 | 14 | – | – | – | – | –
ISIS 445498: microwalk gapmer of Table 51 (antisense eG*eG*eT*eG*e[5mC]*eA*d[5mC]*dA*dG*dT*dT*dT*d[5mC]*dT*eG*eG*e[5mC]*eA*eG*eG) | – | – | 10 | 1.6 | 6 | 0.5 | –
ISIS 445504: microwalk gapmer of Table 51 (antisense eG*eG*e[5mC]*eA*eT*eT*dG*dG*dT*dG*d[5mC]*dA*d[5mC]*dA*eG*eT*eT*eT*e[5mC]*eT) | – | – | 11 | 1.6 | 6 | 0.4 | –
ISIS 445505: microwalk gapmer of Table 51 (antisense e[5mC]*eG*eG*e[5mC]*eA*eT*dT*dG*dG*dT*dG*d[5mC]*dA*d[5mC]*eA*eG*eT*eT*eT*e[5mC]) | – | – | 12 | 1.5 | 6 | 0.5 | –
ISIS 445509: microwalk gapmer of Table 51 (antisense e[5mC]*eG*eG*eA*e[5mC]*eG*dG*d[5mC]*dA*dT*dT*dG*dG*dT*eG*e[5mC]*eA*e[5mC]*eA*eG) | – | – | 10 | 1.6 | 6 | 0.5 | –
ISIS 445513: microwalk gapmer of Table 51 (antisense eG*e[5mC]*eA*eG*e[5mC]*eG*dG*dA*d[5mC]*dG*dG*d[5mC]*dA*dT*eT*eG*eG*eT*eG*e[5mC]) | – | – | 9 | 1.6 | 5 | 0.4 | –
ISIS 445530: microwalk gapmer of Table 51 (antisense eG*e[5mC]*eA*eT*eT*dG*dG*dT*dG*d[5mC]*dA*d[5mC]*dA*eG*eT*eT*eT*e[5mC]) | – | – | 11 | 1.5 | 6 | 0.5 | –
ISIS 445532: microwalk gapmer of Table 51 (antisense e[5mC]*eG*eG*e[5mC]*eA*dT*dT*dG*dG*dT*dG*d[5mC]*dA*e[5mC]*eA*eG*eT*eT) | – | – | 10 | 1.6 | 6 | 0.4 | –
